Measured values: US20070117770A1, “Human ribosomal DNA (rDNA) and ribosomal RNA (rRNA) nucleic acids and uses thereof” (Cylene Pharmaceuticals, Inc., priority 2005, published 2007)

Key:
Test in all cases: Protein kinase inhibition assay
Assay type in all cases: biochemical
JAK3(h) = JAK3(h) (Homo sapiens, UniProt P52333); conditions: read-out: percent residual activity of JAK3(h)
Experimental: (§1) Certain compounds were tested for activity in protein kinase inhibition assays. All substrates were dissolved and diluted to working stocks in de-ionized water, apart from histone H1 (10× working stock in 20 mM MOPS pH 7.0), PDKtide (10× working stock in 50 mM Tris pH 7.0) ATF2 (which is typically stored at a 20× working stock in 50 mM Tris pH 7.5, 150 mM NaCl, 0.1 mM EGTA, 0.03% Brij-35, 50% glycerol, 1 mM benzamidine, 0.2 mM PMSF and 0.1% R-mercaptoethanol), KKLNRTLSFAEPG (SEQ ID NO:203) and RRRLSFAEPG (SEQ ID NO:204) (50 mM HEPES pH 7.4) and GGEEEEYFELVKKKK (SEQ ID NO:205) (20 mM MOPS pH 7.0). All kinases were pre-diluted to a 10× working concentration prior to addition into the assay. The composition of the dilution buffer for each kinase is detailed below.
(§2) In a final reaction volume of 25 μl, JAK3 (h) (5-10 mU) is incubated with 8 mM MOPS pH 7.0, 0.2 mM EDTA, 500 μM GGEEEEYFELVKKKK (SEQ ID NO:218), 10 mM MgAcetate and [gamma-33P-ATP] (specific activity approx. 500 cpm/pmol, concentration as required). The reaction is initiated by the addition of the MgATP mix. After incubation for 40 minutes at room temperature, the reaction is stopped by the addition of 5 μl of a 3% phosphoric acid solution. 10 μl of the reaction is then spotted onto a P30 filtermat and washed three times for 5 minutes in 75 mM phosphoric acid and once in methanol prior to drying and scintillation counting.

PAK6(h) = PAK6(h) (Homo sapiens, UniProt Q9NQU5); conditions: read-out: percent residual activity of PAK6(h)
PAK6(h), sequence (Q9NQU5 whole entry): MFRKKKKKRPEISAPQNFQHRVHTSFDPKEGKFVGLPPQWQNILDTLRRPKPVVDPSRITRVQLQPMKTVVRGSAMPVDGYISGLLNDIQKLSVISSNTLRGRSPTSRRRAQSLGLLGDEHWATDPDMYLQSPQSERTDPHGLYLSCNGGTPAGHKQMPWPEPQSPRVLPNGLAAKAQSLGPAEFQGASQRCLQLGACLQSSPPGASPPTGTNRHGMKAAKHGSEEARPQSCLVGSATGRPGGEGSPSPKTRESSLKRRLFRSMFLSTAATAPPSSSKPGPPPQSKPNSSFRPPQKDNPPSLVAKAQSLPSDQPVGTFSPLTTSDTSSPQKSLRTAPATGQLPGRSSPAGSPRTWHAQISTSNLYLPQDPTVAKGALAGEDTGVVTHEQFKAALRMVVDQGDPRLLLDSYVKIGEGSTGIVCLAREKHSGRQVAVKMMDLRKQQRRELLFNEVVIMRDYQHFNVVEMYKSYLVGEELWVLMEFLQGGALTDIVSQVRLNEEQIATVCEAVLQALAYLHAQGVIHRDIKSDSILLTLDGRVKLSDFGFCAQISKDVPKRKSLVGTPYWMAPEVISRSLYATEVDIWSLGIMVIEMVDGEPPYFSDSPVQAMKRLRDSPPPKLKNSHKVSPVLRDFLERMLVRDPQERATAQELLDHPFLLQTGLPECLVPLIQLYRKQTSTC
Experimental: as §1
as §2, with “μl, PAK6” for “μl, JAK3”, “EDTA, 200” for “EDTA, 500”, “μM RRRLSFAEPG” for “μM GGEEEEYFELVKKKK”, “ID NO:223),” for “ID NO:218),”, “and [y-33P-ATP]” for “and [gamma-33P-ATP]”

ROCK-I(h) = ROCK-I(h) (Homo sapiens, UniProt Q13464); conditions: read-out: percent residual activity of ROCK-I(h)
ROCK-I(h), sequence (Q13464 whole entry): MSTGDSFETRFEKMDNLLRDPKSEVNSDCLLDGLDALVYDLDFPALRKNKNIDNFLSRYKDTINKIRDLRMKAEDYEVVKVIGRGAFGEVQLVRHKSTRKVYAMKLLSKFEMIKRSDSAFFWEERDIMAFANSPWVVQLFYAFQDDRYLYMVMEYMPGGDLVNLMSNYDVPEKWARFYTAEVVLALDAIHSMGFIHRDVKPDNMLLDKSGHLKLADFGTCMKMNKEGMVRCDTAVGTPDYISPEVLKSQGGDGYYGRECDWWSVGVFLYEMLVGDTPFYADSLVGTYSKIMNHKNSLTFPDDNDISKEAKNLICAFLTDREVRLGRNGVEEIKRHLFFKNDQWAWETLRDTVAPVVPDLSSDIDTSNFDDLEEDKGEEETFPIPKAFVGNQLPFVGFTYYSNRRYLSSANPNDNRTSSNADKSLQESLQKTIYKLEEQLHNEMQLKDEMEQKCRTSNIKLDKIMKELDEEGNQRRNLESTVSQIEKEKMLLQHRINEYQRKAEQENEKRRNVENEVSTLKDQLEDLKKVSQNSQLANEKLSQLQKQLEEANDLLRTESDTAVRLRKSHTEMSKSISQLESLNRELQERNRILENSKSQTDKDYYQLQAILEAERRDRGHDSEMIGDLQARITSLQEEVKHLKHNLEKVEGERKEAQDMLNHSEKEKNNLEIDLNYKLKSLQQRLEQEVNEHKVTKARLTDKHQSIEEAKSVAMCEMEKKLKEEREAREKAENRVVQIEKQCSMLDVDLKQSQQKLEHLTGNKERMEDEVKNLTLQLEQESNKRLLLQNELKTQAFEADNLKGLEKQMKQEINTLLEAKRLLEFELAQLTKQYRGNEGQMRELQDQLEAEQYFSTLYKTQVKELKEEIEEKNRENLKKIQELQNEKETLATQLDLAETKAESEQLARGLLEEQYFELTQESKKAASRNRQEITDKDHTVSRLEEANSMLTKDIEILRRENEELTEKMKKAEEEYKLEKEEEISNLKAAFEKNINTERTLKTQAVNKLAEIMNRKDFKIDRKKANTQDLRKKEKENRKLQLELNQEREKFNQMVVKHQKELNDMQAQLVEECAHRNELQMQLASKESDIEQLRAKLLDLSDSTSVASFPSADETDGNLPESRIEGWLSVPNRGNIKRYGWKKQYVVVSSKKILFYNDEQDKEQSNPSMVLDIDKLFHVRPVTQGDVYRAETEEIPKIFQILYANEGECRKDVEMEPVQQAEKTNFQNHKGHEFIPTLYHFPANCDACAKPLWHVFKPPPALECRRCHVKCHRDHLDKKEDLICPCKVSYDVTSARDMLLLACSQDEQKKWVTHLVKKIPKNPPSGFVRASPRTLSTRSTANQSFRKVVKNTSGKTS
Experimental: as §1
as §2, with “μl, ROCK-I” for “μl, JAK3”, “EDTA, 30” for “EDTA, 500”, “μM […]” for “μM GGEEEEYFELVKKKK”, “ID NO:222),” for “ID NO:218),”

Rse(h) = Rse(h) (Homo sapiens, UniProt Q06418); conditions: read-out: percent residual activity of Rse(h)
Rse(h), sequence (Q06418 41-890): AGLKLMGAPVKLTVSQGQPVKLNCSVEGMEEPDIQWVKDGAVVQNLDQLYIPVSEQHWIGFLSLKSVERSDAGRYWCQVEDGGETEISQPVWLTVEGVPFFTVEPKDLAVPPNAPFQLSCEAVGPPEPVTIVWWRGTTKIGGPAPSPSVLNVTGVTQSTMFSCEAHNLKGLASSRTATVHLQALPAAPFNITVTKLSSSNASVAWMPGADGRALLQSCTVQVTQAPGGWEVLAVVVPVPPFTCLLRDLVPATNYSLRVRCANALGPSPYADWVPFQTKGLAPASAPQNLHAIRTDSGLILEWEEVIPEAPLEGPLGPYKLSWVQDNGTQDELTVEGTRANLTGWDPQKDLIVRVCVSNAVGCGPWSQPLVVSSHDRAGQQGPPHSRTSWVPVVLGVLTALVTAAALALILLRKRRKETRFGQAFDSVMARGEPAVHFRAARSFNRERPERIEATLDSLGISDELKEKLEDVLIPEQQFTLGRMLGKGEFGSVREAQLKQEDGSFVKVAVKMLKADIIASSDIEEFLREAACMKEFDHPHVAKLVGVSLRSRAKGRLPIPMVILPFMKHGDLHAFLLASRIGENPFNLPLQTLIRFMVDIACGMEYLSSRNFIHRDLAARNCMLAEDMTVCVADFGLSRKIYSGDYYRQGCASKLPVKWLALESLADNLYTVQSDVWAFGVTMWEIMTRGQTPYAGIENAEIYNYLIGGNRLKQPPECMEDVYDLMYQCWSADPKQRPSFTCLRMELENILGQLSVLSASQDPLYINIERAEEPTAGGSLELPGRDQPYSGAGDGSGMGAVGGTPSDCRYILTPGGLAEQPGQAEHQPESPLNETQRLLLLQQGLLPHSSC
Experimental: as §1
In a final reaction volume of 25 μl, Rse (h) (5-10 mU) is incubated with 8 mM MOPS pH 7.0, 0.2 mM EDTA, 250 μM KVEKIGEGTYGVVYK (SEQ ID NO:211), 1 mM MnCl2, 10 mM MgAcetate and [gamma-33P-ATP] (specific activity approx. 500 cpm/pmol, concentration as required). The reaction is initiated by the addition of the MgATP mix. After incubation for 40 minutes at room temperature, the reaction is stopped by the addition of 5 μl of a 3% phosphoric acid solution. […]

Fms(h) = Fms(h) (Homo sapiens, UniProt P07333); conditions: read-out: percent residual activity of Fms(h)
Fms(h), sequence (P07333 20-972): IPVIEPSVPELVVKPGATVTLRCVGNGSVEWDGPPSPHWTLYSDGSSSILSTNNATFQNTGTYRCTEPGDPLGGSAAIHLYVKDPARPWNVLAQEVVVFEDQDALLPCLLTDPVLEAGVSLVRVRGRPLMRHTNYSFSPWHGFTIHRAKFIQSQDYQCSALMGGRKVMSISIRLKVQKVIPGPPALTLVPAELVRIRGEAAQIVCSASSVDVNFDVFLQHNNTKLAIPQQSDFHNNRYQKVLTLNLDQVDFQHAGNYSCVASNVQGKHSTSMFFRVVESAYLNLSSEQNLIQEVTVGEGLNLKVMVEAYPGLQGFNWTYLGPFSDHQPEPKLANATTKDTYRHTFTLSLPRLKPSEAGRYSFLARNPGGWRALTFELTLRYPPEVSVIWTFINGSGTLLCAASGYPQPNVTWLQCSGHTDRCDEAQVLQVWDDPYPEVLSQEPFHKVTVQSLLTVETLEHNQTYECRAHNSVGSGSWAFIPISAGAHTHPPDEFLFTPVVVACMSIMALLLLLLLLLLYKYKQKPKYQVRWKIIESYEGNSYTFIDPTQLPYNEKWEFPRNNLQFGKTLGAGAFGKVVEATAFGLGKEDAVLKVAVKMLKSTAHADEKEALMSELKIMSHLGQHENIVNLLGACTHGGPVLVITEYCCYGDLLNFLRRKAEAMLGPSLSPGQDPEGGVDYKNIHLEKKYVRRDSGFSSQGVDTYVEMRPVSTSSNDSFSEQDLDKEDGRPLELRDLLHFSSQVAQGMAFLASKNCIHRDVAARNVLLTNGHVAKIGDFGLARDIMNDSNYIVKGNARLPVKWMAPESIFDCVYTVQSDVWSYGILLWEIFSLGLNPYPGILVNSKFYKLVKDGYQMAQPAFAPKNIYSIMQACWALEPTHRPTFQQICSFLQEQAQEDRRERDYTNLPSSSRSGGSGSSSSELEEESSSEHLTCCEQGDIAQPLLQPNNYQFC
Experimental: as §1
as §2, with “μl, Fms” for “μl, JAK3”, “EDTA, 250” for “EDTA, 500”, “μM KKKSPGEYVNIEFG” for “μM GGEEEEYFELVKKKK”, “ID NO:207),” for “ID NO:218),”, “and [y-33P-ATP]” for “and [gamma-33P-ATP]”

Ron(h) = Ron(h) (Homo sapiens, UniProt Q04912); conditions: read-out: percent residual activity of Ron(h)
Experimental: as §1
as §2, with “μl, Ron” for “μl, JAK3”, “EDTA, 250” for “EDTA, 500”, “μM KKSRGDYMTMQIG” for “μM GGEEEEYFELVKKKK”, “ID NO:210),” for “ID NO:218),”

JAK3(h), sequence (P52333 whole entry): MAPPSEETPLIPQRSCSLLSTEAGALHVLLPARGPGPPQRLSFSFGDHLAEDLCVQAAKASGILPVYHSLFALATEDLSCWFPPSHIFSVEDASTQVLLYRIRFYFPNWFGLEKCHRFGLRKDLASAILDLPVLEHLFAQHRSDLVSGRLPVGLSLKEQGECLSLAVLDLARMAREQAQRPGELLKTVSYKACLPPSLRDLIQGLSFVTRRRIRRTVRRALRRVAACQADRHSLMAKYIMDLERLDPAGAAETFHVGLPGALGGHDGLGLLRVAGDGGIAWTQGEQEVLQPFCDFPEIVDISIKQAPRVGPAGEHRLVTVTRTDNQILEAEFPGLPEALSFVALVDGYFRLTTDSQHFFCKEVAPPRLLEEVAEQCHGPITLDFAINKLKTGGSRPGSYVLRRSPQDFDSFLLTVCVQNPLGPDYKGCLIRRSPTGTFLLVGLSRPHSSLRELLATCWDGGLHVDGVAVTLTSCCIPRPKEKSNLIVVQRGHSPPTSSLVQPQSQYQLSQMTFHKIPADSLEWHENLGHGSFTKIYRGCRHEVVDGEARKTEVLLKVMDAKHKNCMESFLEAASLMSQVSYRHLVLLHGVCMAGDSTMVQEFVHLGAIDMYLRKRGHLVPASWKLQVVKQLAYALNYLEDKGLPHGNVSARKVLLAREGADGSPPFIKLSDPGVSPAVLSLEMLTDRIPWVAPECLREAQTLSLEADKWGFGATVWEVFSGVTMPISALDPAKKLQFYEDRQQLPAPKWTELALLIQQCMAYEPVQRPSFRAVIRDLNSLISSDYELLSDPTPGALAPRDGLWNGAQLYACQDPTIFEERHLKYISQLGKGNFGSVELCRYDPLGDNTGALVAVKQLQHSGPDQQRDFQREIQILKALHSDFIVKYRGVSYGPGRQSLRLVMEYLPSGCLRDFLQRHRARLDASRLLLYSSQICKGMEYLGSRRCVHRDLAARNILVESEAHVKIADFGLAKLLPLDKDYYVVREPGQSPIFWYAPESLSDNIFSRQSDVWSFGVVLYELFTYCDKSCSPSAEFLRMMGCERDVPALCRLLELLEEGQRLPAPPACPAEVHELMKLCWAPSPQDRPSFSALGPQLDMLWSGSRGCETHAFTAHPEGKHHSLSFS

SMILES: CN1CCCC1CCNC(=O)c1cn2c3c(c(N4CCC(c5cnccn5)C4)c(F)cc3c1=O)Oc1cc3ccccc3cc1-2 (stereo not drawn) [Compound A-1]
- remaining activity at 2.5 µM (JAK3(h)): 112%
- remaining activity at 2.5 µM (PAK6(h)): 123%
- remaining activity at 2.5 µM (ROCK-I(h)): 91%
- remaining activity at 2.5 µM (Rse(h)): 92%
- remaining activity at 2.5 µM (Fms(h)): 131%
- remaining activity at 2.5 µM (Ron(h)): 71%

SMILES: CC(=O)N1CCN(c2ccc3c(=O)c(C(=O)NCCN4CCCC4)c4n(C)c5ccccc5n4c3n2)CC1 [Compound B-1]
- remaining activity at 2.5 µM (JAK3(h)): 109%
- remaining activity at 2.5 µM (PAK6(h)): 112%
- remaining activity at 2.5 µM (ROCK-I(h)): 101%
- remaining activity at 2.5 µM (Rse(h)): 92%
- remaining activity at 2.5 µM (Fms(h)): 107%
- remaining activity at 2.5 µM (Ron(h)): 95%
